Earlier results in PMC3792011 (Clinical Pharmacology : Advances and Applications, 2013).
Several values for one entry are separate records, joined by “and”; a condition that tells them apart may be missing. Equal entries are not always repeated.

What was measured:
[1] = steady state; bibliographic data
[2] = treatment guidelines

COC(=O)N[C@H](C(=O)N[C@@H](Cc1ccccc1)[C@@H](O)CN(Cc1ccc(-c2ccccn2)cc1)NC(=O)[C@@H](NC(=O)OC)C(C)(C)C)C(C)(C)C [ATZ, Atazanavir]
AUC, geometric mean (CV %) [1]: 65.4 (0.1) μmol · h/L | AUC, mean (SD) [1]: 76.4 (50.1) μmol · h/L | Cmax_SS_ATZ, geometric mean (CV %) [1]: 6.2 (0.1) μmol/L | Cmax_SS_ATZ, mean (SD) [1]: 7.4 (4.3) μmol/L | Cmin_SS_ATZ, geometric mean (CV %) [1]: 0.9 μmol/L and 0.9 (0.1) μmol/L | Cmin_SS_ATZ, mean (SD) [1]: 1.2 (1.2) μmol/L | T-half, mean (SD) [1]: 8.6 (2.3) h | Recommended upper limit of plasma concentration (risk of hyperbilirubinemia) [2]: < 1.1 µmol/L
